The values that follow come from paper PMC7531004, “Discovery of gramicidin A analogues with altered activities by multidimensional screening of a one-bead-one-compound library” (Nature Communications, 2020).

Data set [1] deals with Streptococcus pyogenes SSI-9. As to the kind of experiment: Antibacterial activity assay of bead-derived peptides (three concentrations). The format is cell-based. Details: key: +++: inhibition by the 640-fold diluted peptide solution; ++: inhibition by the 160-fold diluted solution; +: inhibition by the 40-fold diluted solution; -: no inhibition. Particulars: S. pyogenes, bead-derived peptide solution, three concentrations. The method, boiled down:
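First, each peptide stock was diluted 4- and 16-fold in DMSO; next, the three solutions were mixed with S. pyogenes SSI-9 suspension (2 × 10^5 CFU) in cation-adjusted Mueller Hinton Broth plus 5% laked horse blood; finally, plates stood 18 h at 37 °C before checking for grown-cell precipitation.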

Data set [2] relates to P388 mouse leukemia cells. As to conditions: 92 h. The method, boiled down: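 Peptide stocks diluted 250× in growth medium; P388 cells 1 × 10^4 cells/mL final; 37 °C, 5% CO2, 92 h. WST-1 + 1-methoxy PMS, 4 h, A415. Output: % viability.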
Data set [3] is described as follows: H+/Na+ transport assay of bead-derived peptides (one-point).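 Also: relative to parent gramicidin A activity set to 1.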 Particulars: bead-derived peptide solution, EYPC/EYPG LUVs. Details: key: relative activity; mean of two control wells = 1.00. Type of data set: biochemical. The method, boiled down:
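Values are normalized fluorescence, with Triton X-100 defining 100% and untreated LUVs 0%, and the two control wells averaging 1.00. Vesicles carried 1.0 mM pyranine and included egg yolk phosphatidylglycerol. Peptides were incubated with them 30 min at room temperature.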

Where a SMILES comes first, the peptide text is derived from it. [ ]: non-standard residue; d: D form. The star is where a group is joined. NHCH2CH2OH = OCCN*; For = O=C*

For `CC(C)C[C@@H](NC(=O)[C@H](Cc1c[nH]c2ccccc12)NC(=O)[C@H](NC(=O)[C@H](Cc1c[nH]c2ccccc12)NC(=O)[C@H](NC(=O)[C@H](Cc1c[nH]c2ccccc12)NC(=O)[C@H](NC(=O)[C@@H](NC(=O)[C@H](NC(=O)[C@H](C)NC(=O)[C@H](NC(=O)[C@H](C)NC(=O)CNC(=O)[C@@H](NC=O)C(C)C)[C@H](C)O)C(C)C)C(C)C)C(C)C)C(C)C)C(C)C)C(=O)N[C@@H](Cc1c[nH]c2ccccc12)C(=O)NCCO` [compound 9354] (For-VGA[dT]A[dV]V[dV]W[dV]W[dV]W[dL]W-NHCH2CH2OH), in data set [1], the antibacterial activity result is reported as “-”. In data set [2], this molecule had a cell viability/% of 100.0%. In data set [3], the “H+/Na+ transport activity normalized against the value of 1 (1.00)” value (“H+/Na+ transport activity normalized” below) is recorded as 1.16.
The matching figures for `CC(C)C[C@@H](NC(=O)[C@H](C)NC(=O)CNC(=O)[C@@H](NC=O)C(C)C)C(=O)N[C@@H](C)C(=O)N[C@H](CC(C)C)C(=O)N[C@H](C(=O)N[C@H](CC(C)C)C(=O)N[C@@H](Cc1c[nH]c2ccccc12)C(=O)N[C@H](CC(C)C)C(=O)N[C@@H](Cc1c[nH]c2ccccc12)C(=O)N[C@@H](C(=O)N[C@@H](Cc1c[nH]c2ccccc12)C(=O)N[C@H](CC(C)C)C(=O)N[C@@H](Cc1c[nH]c2ccccc12)C(=O)NCCO)C(C)C)C(C)C` [compound 9473] (For-VGA[dL]A[dL]V[dL]W[dL]W[dV]W[dL]W-NHCH2CH2OH): “-”, 0.0% and 1.04.
Taken in the same sequence, the figures for `CC(C)C[C@@H](NC(=O)[C@H](C)NC(=O)[C@H](NC(=O)[C@H](C)NC(=O)CNC(=O)[C@@H](NC=O)C(C)C)C(C)C)C(=O)N[C@H](C(=O)N[C@@H](C(=O)N[C@@H](Cc1c[nH]c2ccccc12)C(=O)N[C@H](CC(C)C)C(=O)N[C@@H](Cc1c[nH]c2ccccc12)C(=O)N[C@@H](C(=O)N[C@@H](Cc1c[nH]c2ccccc12)C(=O)N[C@@H](C(=O)N[C@@H](Cc1c[nH]c2ccccc12)C(=O)NCCO)C(C)C)C(C)C)[C@H](C)O)C(C)C` [compound 9487] (For-VGA[dV]A[dL]V[dT]W[dL]W[dV]W[dV]W-NHCH2CH2OH) were “-”, 100.0% and 1.15.
Taken in the same sequence, the figures for `CNC(=O)C[C@@H](NC(=O)[C@@H](NC(=O)[C@H](NC(=O)[C@H](C)NC(=O)[C@@H](CC(C)C)NC(=O)[C@H](C)NC(=O)CNC(=O)[C@@H](NC=O)C(C)C)C(C)C)C(C)C)C(=O)N[C@@H](Cc1c[nH]c2ccccc12)C(=O)N[C@@H](C(=O)N[C@@H](Cc1c[nH]c2ccccc12)C(=O)N[C@H](CC(C)C)C(=O)N[C@@H](Cc1c[nH]c2ccccc12)C(=O)N[C@@H](C(=O)N[C@@H](Cc1c[nH]c2ccccc12)C(=O)NCCO)C(C)C)C(C)C` [compound 9521] (For-VGA[dL]A[dV]V[dD](NHMe)W[dV]W[dL]W[dV]W-NHCH2CH2OH) were “-”, 100.0% and 1.14.
As for `CC(C)C[C@@H](NC(=O)[C@H](C)NC(=O)[C@H](NC(=O)[C@H](C)NC(=O)CNC(=O)[C@@H](NC=O)C(C)C)C(C)C)C(=O)N[C@H](C(=O)N[C@@H](C(=O)N[C@@H](Cc1c[nH]c2ccccc12)C(=O)N[C@H](CC(C)C)C(=O)N[C@@H](Cc1c[nH]c2ccccc12)C(=O)N[C@H](CC(C)C)C(=O)N[C@@H](Cc1c[nH]c2ccccc12)C(=O)N[C@@H](C(=O)N[C@@H](Cc1c[nH]c2ccccc12)C(=O)NCCO)C(C)C)C(C)C)C(C)C` [compound 9535] (For-VGA[dV]A[dL]V[dV]W[dL]W[dL]W[dV]W-NHCH2CH2OH), the antibacterial activity entry in data set [1] is recorded as “-”. The same molecule gave a cell viability/% in data set [2] of 3.8%. Moreover, the “H+/Na+ transport activity normalized” value in data set [3] amounted to 1.16.
Turning to `CC(C)C[C@@H](NC(=O)[C@H](Cc1c[nH]c2ccccc12)NC(=O)[C@H](NC(=O)[C@H](Cc1c[nH]c2ccccc12)NC(=O)[C@H](NC(=O)[C@@H](NC(=O)[C@H](NC(=O)[C@H](C)NC(=O)[C@H](NC(=O)[C@H](C)NC(=O)CNC(=O)[C@@H](NC=O)C(C)C)C(C)C)C(C)C)C(C)C)C(C)C)C(C)C)C(=O)N[C@@H](Cc1c[nH]c2ccccc12)C(=O)N[C@@H](C(=O)N[C@@H](Cc1c[nH]c2ccccc12)C(=O)NCCO)C(C)C` [compound 9571] (For-VGA[dV]A[dV]V[dV]W[dV]W[dL]W[dV]W-NHCH2CH2OH), in data set [1], the antibacterial activity entry is “+”. Further, the cell viability/% in data set [2] was 100.0%. The “H+/Na+ transport activity normalized” value in data set [3] is given as 1.14.
For the molecule `CC(C)C[C@@H](NC(=O)[C@H](C)NC(=O)CNC(=O)[C@@H](NC=O)C(C)C)C(=O)N[C@@H](C)C(=O)N[C@H](CC(C)C)C(=O)N[C@H](C(=O)N[C@@H](C(=O)N[C@@H](Cc1c[nH]c2ccccc12)C(=O)N[C@H](CC(C)C)C(=O)N[C@@H](Cc1c[nH]c2ccccc12)C(=O)N[C@@H](C(=O)N[C@@H](Cc1c[nH]c2ccccc12)C(=O)N[C@@H](C(=O)N[C@@H](Cc1c[nH]c2ccccc12)C(=O)NCCO)C(C)C)C(C)C)C(C)C)C(C)C` [compound 9607] (For-VGA[dL]A[dL]V[dV]W[dL]W[dV]W[dV]W-NHCH2CH2OH), in data set [1], the antibacterial activity result is recorded as “+”. The molecule further yielded a cell viability/% in data set [2] of 48.6%. Also, the “H+/Na+ transport activity normalized” value in data set [3] is reported as 1.03.
Regarding `CNC(=O)C[C@@H](NC(=O)[C@H](Cc1c[nH]c2ccccc12)NC(=O)[C@@H](CC(C)C)NC(=O)[C@H](Cc1c[nH]c2ccccc12)NC(=O)[C@H](NC(=O)[C@H](Cc1c[nH]c2ccccc12)NC(=O)[C@H](NC(=O)[C@@H](NC(=O)[C@@H](CC(C)C)NC(=O)[C@H](C)NC(=O)[C@@H](CC(C)C)NC(=O)[C@H](C)NC(=O)CNC(=O)[C@@H](NC=O)C(C)C)C(C)C)C(C)C)C(C)C)C(=O)N[C@@H](Cc1c[nH]c2ccccc12)C(=O)NCCO` [compound 9609] (For-VGA[dL]A[dL]V[dV]W[dV]W[dL]W[dD](NHMe)W-NHCH2CH2OH), in data set [1], the antibacterial activity entry is “-”. The molecule further registered a cell viability/% in data set [2] of 100.0%. Besides, in data set [3], the “H+/Na+ transport activity normalized” value is reported as 1.15.
Taken in the same sequence, the figures for `CC(C)C[C@@H](NC(=O)[C@H](C)NC(=O)CNC(=O)[C@@H](NC=O)C(C)C)C(=O)N[C@@H](C)C(=O)N[C@@H](C(=O)N[C@H](C(=O)N[C@@H](C(=O)N[C@@H](Cc1c[nH]c2ccccc12)C(=O)N[C@@H](C(=O)N[C@@H](Cc1c[nH]c2ccccc12)C(=O)N[C@@H](C(=O)N[C@@H](Cc1c[nH]c2ccccc12)C(=O)N[C@@H](C(=O)N[C@@H](Cc1c[nH]c2ccccc12)C(=O)NCCO)C(C)C)C(C)C)C(C)C)C(C)C)C(C)C)C(C)C` [compound 9610] (For-VGA[dL]A[dV]V[dV]W[dV]W[dV]W[dV]W-NHCH2CH2OH) were “+”, 100.0% and 1.14.
As for `CC(C)C[C@@H](NC(=O)[C@H](C)NC(=O)CNC(=O)[C@@H](NC=O)C(C)C)C(=O)N[C@@H](C)C(=O)N[C@@H](C(=O)N[C@H](C(=O)N[C@H](CC(C)C)C(=O)N[C@@H](Cc1c[nH]c2ccccc12)C(=O)N[C@H](CC(C)C)C(=O)N[C@@H](Cc1c[nH]c2ccccc12)C(=O)N[C@H](CC(C)C)C(=O)N[C@@H](Cc1c[nH]c2ccccc12)C(=O)N[C@H](CC(C)C)C(=O)N[C@@H](Cc1c[nH]c2ccccc12)C(=O)NCCO)C(C)C)C(C)C` [compound 9628] (For-VGA[dL]A[dV]V[dL]W[dL]W[dL]W[dL]W-NHCH2CH2OH), in data set [1], the antibacterial activity result is “+”. In data set [2], this molecule yielded a cell viability/% of 0.0%. Also, the “H+/Na+ transport activity normalized” value in data set [3] was 1.16.
